From the supplement of paper PMC10307832

Assays:
Assay in all cases: relative viability (nuclei count vs DMSO), 5 days (fraction); higher = more cells survive
R406 = compound: COc1cc(Nc2ncc(F)c(Nc3ccc4c(n3)NC(=O)C(C)(C)O4)n2)cc(OC)c1OC [R406]
In short: (§1)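 After an overnight hold at 37 °C, lung cancer cell lines in 1536-well plates were pinned with five library-drug doses (not always all listed), each √10 from the next, on vehicle-anchored plates. The cells stayed 5 days without fresh medium, then a one-step fix, permeabilisation and Hoechst stain preceded 4× imaging and MetaXpress nuclear counts. A plate passed only with control CV under 25% and at least one doubling. Viability is the median, over plates, of treated-well nuclei relative to vehicle-well nuclei.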

Daporinad = compound: O=C(/C=C/c1cccnc1)NCCCCC1CCN(C(=O)c2ccccc2)CC1 [Daporinad]
In short: as §1

R406 + Navitoclax = compound: COc1cc(Nc2ncc(F)c(Nc3ccc4c(n3)NC(=O)C(C)(C)O4)n2)cc(OC)c1OC [R406] + CC1(C)CCC(c2ccc(Cl)cc2)=C(CN2CCN(c3ccc(C(=O)NS(=O)(=O)c4ccc(N[C@H](CCN5CCOCC5)CSc5ccccc5)c(S(=O)(=O)C(F)(F)F)c4)cc3)CC2)C1 [Navitoclax] (partner 0.5 µM)
In short: (§2)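 Relative viability was taken as the ratio of nuclei in treated wells to nuclei in vehicle wells. Lung cancer cell lines in 1536-well plates received compounds by pin tool one day after seeding, either one drug alone or a fixed anchor-drug dose plus five library-drug doses (not always all listed) in √10 steps. Nuclei were counted on 4× images after 5 days of treatment, and values are medians of duplicate plates.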

Daporinad + Phenformin = compound: O=C(/C=C/c1cccnc1)NCCCCC1CCN(C(=O)c2ccccc2)CC1 [Daporinad] + N=C(N)NC(=N)NCCc1ccccc1 [Phenformin] (partner 250 µM)
In short: as §2

Cell Line | relative viability (R406; 0.08 µM) | relative viability (R406; 0.253 µM) | relative viability (R406; 0.8 µM) | relative viability (R406; 2.53 µM) | relative viability (R406; 8 µM) | relative viability (Daporinad; 0.0005 µM) | relative viability (Daporinad; 0.001581 µM) | relative viability (Daporinad; 0.005 µM) | relative viability (Daporinad; 0.01581 µM) | relative viability (R406 + Navitoclax; first compound 0.08 µM) | relative viability (R406 + Navitoclax; first compound 0.253 µM) | relative viability (R406 + Navitoclax; first compound 0.8 µM) | relative viability (R406 + Navitoclax; first compound 8 µM) | relative viability (Daporinad + Phenformin; first compound 0.0005 µM) | relative viability (Daporinad + Phenformin; first compound 0.001581 µM) | relative viability (Daporinad + Phenformin; first compound 0.005 µM) | relative viability (Daporinad + Phenformin; first compound 0.01581 µM) | relative viability (R406 + Navitoclax; first compound 2.53 µM)
LU99A | 0.984 | 0.983 | 1.22 | 0.796 | 0.824 | 0.975 | 1.09 | 1.08 | 0.966 | 0.761 | 0.72 | 1.11 | 0.229 | 0.833 | 0.981 | 0.946 | 0.93 | 
NCI-H1793 | 0.731 | 1.17 | 1.13 | 0.159 | 0.279 | 0.801 | 0.959 | 0.984 | 1.09 | 0.336 | 0.442 | 0.398 | 0.17 | 0.322 | 0.395 | 0.403 | 0.564 | 0.206
NCI-H2347 | 1.06 | 1.18 | 1.11 | 0.935 | 0.796 | 1.13 | 1.13 | 1.02 | 1.09 | 0.736 | 0.824 | 0.95 | 0.529 | 0.53 | 0.319 | 0.447 | 0.379 | 0.663
NCI-H1993 | 1.01 | 1.09 | 0.921 | 0.658 | 0.599 | 0.881 | 0.99 | 1.05 | 1.15 | 0.974 | 0.98 | 0.848 | 0.7 | 0.536 | 0.553 | 0.535 | 0.578 | 0.78
NCI-H322M | 0.889 | 0.922 | 0.939 | 0.542 | 0.405 | 0.906 | 1.05 | 0.936 | 0.751 | 1.13 | 1.23 | 1.28 | 0.534 | 0.793 | 0.726 | 0.686 | 0.436 | 0.862
PC-14 | 0.968 | 1.18 | 1.09 | 0.759 | 0.601 | 0.951 | 1.08 | 1.08 | 0.871 | 1.01 | 1.05 | 1.04 | 0.836 | 0.357 | 0.633 | 0.488 | 0.4 | 0.984
HARA | 0.975 | 0.965 | 1.1 | 0.676 | 0.365 | 0.903 | 0.958 | 0.964 | 0.583 | 1.05 | 1.14 | 1.12 | 0.453 | 0.412 | 0.397 | 0.426 | 0.114 | 1.19
NCI-H2087 | 1.05 | 1.16 | 1.23 | 0.428 | 0.851 | 0.906 | 1.16 | 1.22 | 1.02 | 1.03 | 0.882 | 1.05 | 0.694 | 0.405 | 0.601 | 0.535 | 0.496 | 1.06
NCI-H1437 | 0.994 | 1.08 | 1.06 | 0.884 | 0.622 | 0.891 | 1.01 | 1.01 | 0.99 | 1.1 | 1.16 | 1.1 | 0.725 | 0.349 | 0.325 | 0.349 | 0.362 | 0.997
NCI-H1792 | 1 | 1.07 | 1.17 | 0.251 | 0.386 | 0.828 | 1.17 | 1.11 | 1.15 | 0.536 | 0.804 | 0.89 | 0.582 |  | 0.582 | 0.222 | 0.68 | 0.6
ChaGo-K-1 | 0.948 | 1.12 | 0.974 | 0.944 | 0.73 | 1.03 | 0.86 | 0.94 | 0.509 | 0.969 | 1.16 | 1.01 | 0.44 | 0.513 | 0.532 | 0.434 | 0.274 | 0.947
COR-L23 | 0.953 | 1.17 | 1.16 | 0.901 | 0.592 | 1.02 | 1.04 | 0.908 | 0.275 | 0.951 | 1.04 | 1.1 | 0.451 | 0.422 | 0.463 | 0.317 | 0.194 | 0.836
COR-L 105 | 0.911 | 1.05 | 1.12 | 0.666 | 0.418 | 0.906 | 0.976 | 0.991 | 0.969 | 0.858 | 0.755 | 1.02 | 0.558 | 0.491 | 0.485 | 0.545 | 0.607 | 0.805
LK-2 | 0.86 | 1.22 | 1.09 | 0.682 | 0.431 | 0.909 | 1.18 | 0.781 | 0.283 | 0.726 | 1.06 | 0.889 | 0.455 | 0.651 | 0.305 | 0.314 | 0.159 | 0.527
201T | 0.929 | 1.02 | 1.06 | 0.844 | 0.67 | 0.962 | 1.04 | 0.972 | 1.01 | 1.16 | 1.15 | 1.17 | 1.18 | 0.423 | 0.456 | 0.499 | 0.463 | 1.19
HCC-44 | 0.979 | 0.976 | 0.94 | 0.928 | 0.711 | 0.992 | 0.993 | 0.97 | 1 | 0.915 | 1.04 | 1.05 | 0.316 | 0.255 | 0.189 | 0.233 | 0.182 | 1.04
NCI-H647 | 0.943 | 1.13 | 1.1 | 0.538 | 0.233 | 0.914 | 1.11 | 1.07 | 1.05 | 1.04 | 1.29 | 1.18 | 0.467 | 0.534 | 0.65 | 0.641 | 0.643 | 0.562
H3255 | 0.943 | 1.16 | 0.989 | 0.859 | 0.873 | 0.842 | 1 | 1.06 | 1.19 | 0.488 | 0.731 | 0.541 | 0.14 | 0.355 | 0.341 | 0.379 | 0.424 | 0.312
